According to paper PMC10581193 (Microbiology Spectrum, 2023):
Converted amounts (≈) assume the structure as drawn.

Legend:
[1] = tested on: Streptococcus pneumoniae ATCC49619; assay: MIC against other strains, agar double dilution; settings: ATCC49619, 24 h
E. faecium ATCC19434 = assay: MIC against other strains, agar double dilution; settings: Enterococcus faecium, ATCC19434, 24 h
[2] = tested on: Pseudomonas aeruginosa ATCC27853; assay: MIC against other strains, agar double dilution; settings: ATCC27853, 24 h
M. tuberculosis H37Ra = assay: microbe, parasite or virus in culture; type: cell-based, Mycobacterium tuberculosis; settings: for MIC: Mycobacterium tuberculosis, H37RA, read-out: MIC against H37Ra
human PDE6C = molecular target: T1, human PDE6C (Homo sapiens, UniProt P51160); assay: IMAP fluorescence polarization assay against PDE6C; type: biochemical
T1 construct: purchased BPS 60060
Protocol: Prepare assay buffer and stop buffer were prepared. […] Fluorescein Amidite - cyclic Guanosine Monophosphate (FAM-cGMP) was added in the 1× assay buffer for PDE6C, which was the 2× substrate solution. Two times enzyme solution was transferred to the assay plate: (i) assay plate already contained corresponding volume of compound in 100% DMSO; (ii) add 2× enzyme solution to each well of the 384-well assay plate; and (iii) incubate at room temperature for 15 min. Two times substrate solution was transferred to the assay plate. PDE reaction and termination: (i) incubate at 25°C for 40 min; (ii) add stop buffer to stop reaction, and incubate at RT for 60 min. Data were collected on Envision (Perkin Elmer). Data were fitted in Excel to obtain inhibition values using equation (1). Equation (1): Inh % = (Max − Signal)/(Max − Min) × 100. Fit the data in XL-Fit to obtain IC50 values using equation (2). Equation (2): Y = Bottom + (Top − Bottom)/[1 + (IC50/X) × HillSlope]. Y is the % inhibition and X is the compound concentration.

[3] = tested on: Staphylococcus aureus ATCC29213; assay: MIC against other strains, agar double dilution; settings: ATCC29213, 24 h
A549 = assay: Cell viability assay (MTT), A549; type: cell-based; settings: Homo sapiens, 48 h
Protocol: (§1) Cell viabilities were measured by 3-(4,5-dimethylthiazol-2-yl)−2,5-diphenyltetrazolium bromide (MTT) assay. Briefly, 20 µL of 5 mg/mL MTT solution was added to the culture medium and incubated at 37°C for 3 h. Then 50 µL of 20% (wt/vol) SDS was directly added to each well and incubated at 37°C overnight. The plates were shaken for 15 s and the […] reading were obtained at 570 nm wavelength. The IC50 values were calculated using the GraphPad Prism 8 software.

Y198 (XDR) = assay: microbe, parasite or virus in culture; type: cell-based, M. tuberculosis; settings: for MIC: Mycobacterium tuberculosis
S. epidermidis ATCC12228 = assay: MIC against other strains, agar double dilution; settings: Staphylococcus epidermidis, ATCC12228, 24 h
Y17 (MDR) = assay: microbe, parasite or virus in culture; type: cell-based, M. tuberculosis; settings: for MIC: Mycobacterium tuberculosis
in vitro = in vitro ADME; settings: rat, plasma, pH 7.4
Protocol: 0.1 M sodium phosphate and 0.15 M NaCl buffer (pH = 7.4 ± 0.1) were preheated. The frozen plasma was thawed at 37°C. Plasma was centrifuged at 12,000 rpm for 5 min to remove clots. Pipette and collect the supernatant as the plasma to be used in the experiment. Dialysis membrane strips were soaked in distilled water for an hour. Add 20% by volume ethanol and soak for a further 20 min. The membrane strips were then rinsed in distilled water three times before use. Five microliters of 10 mM stock solution were added into 95 µL of acetonitrile (ACN) for reference and test compounds, which was 0.5 mM solution A. Eight microliters of 10 mM stock solution were added into 192 µL of ACN for reference and test compounds, which was 0.02 mM solution B. A 96-well plate with 380 µL aliquots of plasma was preloaded in the wells designated for plasma, respectively. Twenty microliters of solution B (0.02 mM) were spiked into the pre-loaded plasma in the 96-well plate. The final concentration is 1 µM, containing 0.01% DMSO. Aliquots of 100 µL of blank dialysis buffer were applied to the receiver side of dialysis chambers. Then, aliquots of 100 µL of the plasma spiked with test and reference compounds were applied to the donor side of the dialysis chambers (always add the blank buffer to the receiver first, clearly mark the buffer and plasma chamber holes to avoid cross-contamination). […]

Y48 (MDR) = assay: microbe, parasite or virus in culture; type: cell-based, M. tuberculosis; settings: for MIC: Mycobacterium tuberculosis
VERO = assay: Cell viability assay (MTT), VERO; type: cell-based; settings: Chlorocebus sabaeus, 48 h
Protocol: as §1

[4] = tested on: Klebsiella pneumoniae ATCC700603; assay: MIC against other strains, agar double dilution; settings: ATCC700603, 24 h
S. aureus ATCC33591 = assay: MIC against other strains, agar double dilution; settings: Staphylococcus aureus, ATCC33591, 24 h
H37Rv = assay: MIC susceptibility testing against H37Rv; type: cell-based, Mycobacterium tuberculosis; settings: for Fold increase: B18 versus TBA-7371; for MIC: Mycobacterium tuberculosis
[5] = tested on: Enterococcus faecalis ATCC29212; assay: MIC against other strains, agar double dilution; settings: ATCC29212, 24 h
E. coli ATCC35218 = assay: MIC against other strains, agar double dilution; settings: Escherichia coli, ATCC35218, 24 h
physchem = type: physicochemical; settings: 37 °C, water, thermodynamic from solid
Protocol: Aqueous solubility of selected compounds was determined by High Performance Liquid Chromatography (HPLC) analysis. […] The absorption intensity of different concentrations of solutions was obtained by HPLC. The linear regression equation between absorption intensity and concentration was obtained by statistical method (R ^2 >0.99). A supersaturated aqueous solution of the target compound was prepared and shaken in 37°C water bath for 24 h. The supersaturated solution was centrifuged and filtered. The absorption intensity of the supersaturated solution was obtained by HPLC. The concentration of saturated aqueous solution was obtained by linear regression equation, which was the aqueous solubility of target compound.

[6] = tested on: Escherichia coli ATCC25922; assay: MIC against other strains, agar double dilution; settings: ATCC25922, 24 h

T1 sequence (P51160 whole entry): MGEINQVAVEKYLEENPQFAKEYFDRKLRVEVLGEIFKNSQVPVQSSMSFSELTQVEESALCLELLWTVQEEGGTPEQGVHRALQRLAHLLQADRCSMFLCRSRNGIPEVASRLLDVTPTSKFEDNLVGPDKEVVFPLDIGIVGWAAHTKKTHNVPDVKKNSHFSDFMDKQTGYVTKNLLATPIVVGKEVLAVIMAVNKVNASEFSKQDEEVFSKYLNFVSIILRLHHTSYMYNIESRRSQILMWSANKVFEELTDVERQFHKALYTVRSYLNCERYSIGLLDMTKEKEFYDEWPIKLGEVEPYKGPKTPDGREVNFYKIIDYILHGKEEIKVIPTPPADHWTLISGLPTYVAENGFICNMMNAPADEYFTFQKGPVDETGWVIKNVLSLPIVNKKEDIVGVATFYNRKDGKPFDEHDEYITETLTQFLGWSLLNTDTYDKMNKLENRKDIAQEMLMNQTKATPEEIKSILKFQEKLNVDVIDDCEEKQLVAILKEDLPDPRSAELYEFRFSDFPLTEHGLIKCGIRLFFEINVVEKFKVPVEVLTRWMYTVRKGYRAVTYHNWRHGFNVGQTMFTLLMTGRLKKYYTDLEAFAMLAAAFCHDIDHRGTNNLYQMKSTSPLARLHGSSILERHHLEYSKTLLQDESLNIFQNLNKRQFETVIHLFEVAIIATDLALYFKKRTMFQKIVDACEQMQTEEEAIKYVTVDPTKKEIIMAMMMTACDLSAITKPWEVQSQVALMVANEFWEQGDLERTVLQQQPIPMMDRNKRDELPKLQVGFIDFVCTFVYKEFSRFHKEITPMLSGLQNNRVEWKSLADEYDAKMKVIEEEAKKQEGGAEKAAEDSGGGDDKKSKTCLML

Cc1nc(C)c(CN2CCOc3c(C(=O)NCC(F)(F)F)cc(C4CC4)cc32)nc1C [B18, 6-cyclopropyl-N-(2,2,2-trifluoroethyl)-4-((3,5,6-trimethylpyrazin-2-yl)methyl)-3,4-dihydro-2H-benzo[b][1,4]oxazine-8-carboxamide]
MIC [1]: > 64 µg/mL | MIC (E. faecium ATCC19434): > 64 µg/mL | MIC [2]: 64 µg/mL (≈ 147 µM) | MBC/MIC (M. tuberculosis H37Ra): < 4 | MIC against H37Ra (M. tuberculosis H37Ra): 0.18 | MIC (M. tuberculosis H37Ra): 0.18 µg/mL (≈ 0.414 µM) | IC50 (human PDE6C): 81 µM | MIC [3]: > 64 µg/mL | IC50 (A549): > 40 µM | MIC (Y198 (XDR)): 5 µg/mL (≈ 11.5 µM) | Fold increase (Y198 (XDR); […], B18 versus TBA-7371): 0.25 | MIC (S. epidermidis ATCC12228): > 64 µg/mL | MIC (Y17 (MDR)): 0.6 µg/mL (≈ 1.38 µM) | Fold increase (Y17 (MDR); […], B18 versus TBA-7371): 1 | fraction unbound at 5 h, 1 µM (in vitro): 0.042 | MIC (Y48 (MDR)): 0.6 µg/mL (≈ 1.38 µM) | Fold increase (Y48 (MDR); […], B18 versus TBA-7371): 1 | IC50 (VERO): > 40 µM | MIC [4]: 64 µg/mL (≈ 147 µM) | MIC (S. aureus ATCC33591): > 64 µg/mL | Fold increase (H37Rv; 3 days): 4 | Fold increase (H37Rv; 7 days): 1 | MIC (H37Rv; 72 h, 3 days): 0.625 µg/mL (≈ 1.44 µM) | MIC (H37Rv; 168 h, 7 days): 0.625 µg/mL (≈ 1.44 µM) | MIC [5]: > 64 µg/mL | MIC (E. coli ATCC35218): > 64 µg/mL | solubility at 24 h (physchem): 21 µg/mL (≈ 48.3 µM) | MIC [6]: 64 µg/mL (≈ 147 µM)

Cc1ccc(CN2CCOc3c(C(=O)NCC(F)(F)F)cc(C4CC4)cc32)cc1 [B21, 6-cyclopropyl-4-(4-methylbenzyl)-N-(2,2,2-trifluoroethyl)-3,4-dihydro-2H-benzo[b][1,4]oxazine-8-carboxamide]
MIC (M. tuberculosis H37Ra): > 25 µg/mL

Cc1cc(C)cc(CN2CCOc3c(C(=O)NCC(F)(F)F)cc(C4CC4)cc32)c1 [B22, 6-cyclopropyl-4-(3,5-dimethylbenzyl)-N-(2,2,2-trifluoroethyl)-3,4-dihydro-2H-benzo[b][1,4]oxazine-8-carboxamide]
MIC (M. tuberculosis H37Ra): > 25 µg/mL

COc1cc(CN2CCOc3c(C(=O)NCC(F)(F)F)cc(C4CC4)cc32)cc(OC)c1 [B23, 6-cyclopropyl-4-(3,5-dimethoxybenzyl)-N-(2,2,2-trifluoroethyl)-3,4-dihydro-2H-benzo[b][1,4]oxazine-8-carboxamide]
MIC (M. tuberculosis H37Ra): > 25 µg/mL

COc1ccc(CN2CCOc3c(C(=O)NCC(F)(F)F)cc(C4CC4)cc32)cc1F [B24, 6-cyclopropyl-4-(3-fluoro-4-methoxybenzyl)-N-(2,2,2-trifluoroethyl)-3,4-dihydro-2H-benzo[b][1,4]oxazine-8-carboxamide]
MIC (M. tuberculosis H37Ra): > 25 µg/mL

COC(=O)c1cccc(CN2CCOc3c(C(=O)NCC(F)(F)F)cc(C4CC4)cc32)c1 [B25, methyl 3-((6-cyclopropyl-8-((2,2,2-trifluoroethyl)carbamoyl)-2,3-dihydro-4H-benzo[b][1,4]oxazin-4-yl)methyl)benzoate]
MIC (M. tuberculosis H37Ra): > 25 µg/mL

Cc1nc(C)c(CN2CCOc3c(C(=O)N[C@@H](C)C(F)(F)F)cc(C4CC4)cc32)nc1C [B26, (S)-6-cyclopropyl-N-(1,1,1-trifluoropropan-2-yl)-4-((3,5,6-trimethylpyrazin-2-yl)methyl)-3,4-dihydro-2H-benzo[b][1,4]oxazine-8-carboxamide]
MIC (M. tuberculosis H37Ra): > 25 µg/mL

Cc1nc(C)c(CN2CCOc3c(C(=O)N[C@H](C)C(F)(F)F)cc(C4CC4)cc32)nc1C [B27, (R)-6-cyclopropyl-N-(1,1,1-trifluoropropan-2-yl)-4-((3,5,6-trimethylpyrazin-2-yl)methyl)-3,4-dihydro-2H-benzo[b][1,4]oxazine-8-carboxamide]
MIC (M. tuberculosis H37Ra): > 25 µg/mL

Cc1nc(C)c(CN2CCOc3c(C(=O)NCCC(F)(F)F)cc(C4CC4)cc32)nc1C [B28, 6-cyclopropyl-N-(3,3,3-trifluoropropyl)-4-((3,5,6-trimethylpyrazin-2-yl)methyl)-3,4-dihydro-2H-benzo[b][1,4]oxazine-8-carboxamide]
MIC (M. tuberculosis H37Ra): > 25 µg/mL

Cc1nc(C)c(CN2CCOc3c(C(=O)NCC(C)(F)F)cc(C4CC4)cc32)nc1C [B29, 6-cyclopropyl-N-(2,2-difluoropropyl)-4-((3,5,6-trimethylpyrazin-2-yl)methyl)-3,4-dihydro-2H-benzo[b][1,4]oxazine-8-carboxamide]
MIC (M. tuberculosis H37Ra): > 25 µg/mL

Cc1nc(C)c(CN2CCOc3c(C(=O)NCC(F)(F)CO)cc(C4CC4)cc32)nc1C [B30, 6-cyclopropyl-N-(2,2-difluoro-3-hydroxypropyl)-4-((3,5,6-trimethylpyrazin-2-yl)methyl)-3,4-dihydro-2H-benzo[b][1,4]oxazine-8-carboxamide]
MIC (M. tuberculosis H37Ra): > 25 µg/mL

Cc1nc(C)c(CN2CCOc3c(C(=O)NCCCC(F)(F)F)cc(C4CC4)cc32)nc1C [B31, 6-cyclopropyl-N-(4,4,4-trifluorobutyl)-4-((3,5,6-trimethylpyrazin-2-yl)methyl)-3,4-dihydro-2H-benzo[b][1,4]oxazine-8-carboxamide]
MIC (M. tuberculosis H37Ra): > 25 µg/mL

Cc1nc(C)c(CN2CCOc3c(C(=O)NC4CCC(F)(F)CC4)cc(C4CC4)cc32)nc1C [B32, 6-cyclopropyl-N-(4,4-difluorocyclohexyl)-4-((3,5,6-trimethylpyrazin-2-yl)methyl)-3,4-dihydro-2H-benzo[b][1,4]oxazine-8-carboxamide]
MIC (M. tuberculosis H37Ra): > 25 µg/mL

Cc1nc(C)c(CN2CCOc3c(C(=O)NCC(F)(F)F)cc(-c4ccccc4)cc32)nc1C [B33]
MIC (M. tuberculosis H37Ra): > 25 µg/mL

Cc1nc(C)c(CN2CCOc3c(C(=O)N(C)CC(F)(F)F)cc(C4CC4)cc32)nc1C [B34, 6-cyclopropyl-N-methyl-n-(2,2,2-trifluoroethyl)-4-((3,5,6-trimethylpyrazin-2-yl)methyl)-3,4-dihydro-2H-benzo[b][1,4]oxazine-8-carboxamide]
MIC (M. tuberculosis H37Ra): > 25 µg/mL

COc1ncnc(Cn2cc(C(=O)NCCO)c3ncc(C)cc32)c1C [TBA-7371, reference compound]
MIC [1]: > 64 µg/mL | MIC (E. faecium ATCC19434): > 64 µg/mL | MIC [2]: > 64 µg/mL | MIC (M. tuberculosis H37Ra): 0.18 µg/mL (≈ 0.506 µM) | MIC [3]: > 64 µg/mL | IC50 (A549): > 40 µM | MIC (Y198 (XDR)): 1.25 µg/mL (≈ 3.52 µM) | MIC (S. epidermidis ATCC12228): > 64 µg/mL | MIC (Y17 (MDR)): 0.6 µg/mL (≈ 1.69 µM) | MIC (Y48 (MDR)): 0.6 µg/mL (≈ 1.69 µM) | IC50 (VERO): > 40 µM | MIC [4]: > 64 µg/mL | MIC (S. aureus ATCC33591): > 64 µg/mL | MIC (H37Rv; 72 h, 3 days): 2.5 µg/mL (≈ 7.03 µM) | MIC (H37Rv; 168 h, 7 days): 0.625 µg/mL (≈ 1.76 µM) | MIC [5]: > 64 µg/mL | MIC (E. coli ATCC35218): > 64 µg/mL | MIC [6]: > 64 µg/mL
